Measured values from patent US11731946B2, “Broad spectrum antivirulence, anti-persistence compounds” (priority 2017, dated 2023).
≈ marks a conversion by molar mass, not a printed value. Where “and” joins values, the source holds several entries; their conditions need not be identical. Equal entries are not always repeated. Entries after “also recorded” stand apart in the source; their conditions may differ. Where two headings read alike, the source gives them in different places.

What was measured:
MvfR regulon [1] = assay: Quantification of pyocyanin (OD520nm of chloroform-extracted cultures); assay type: cell-based, P. aeruginosa; details: Pseudomonas aeruginosa; for IC50: read-out: IC50 pyocyanin (μM); for activity at 50 µM: read-out: pyocyanin @50 uM (%), compound at 50 uM; for activity at 1 µM: read-out: pyocyanin @1 uM (%), compound at 1 uM; for activity at 10 µM: read-out: pyocyanin @10 uM (%), compound at 10 uM
MvfR regulon [2] = assay: pqsA gene expression (pqsA-GFP reporter); assay type: cell-based, P. aeruginosa; details: Pseudomonas aeruginosa; for IC50: read-out: IC50 pqsA (μM); for activity at 10 µM: read-out: pqsA @10 uM (%), compound at 10 uM; for activity at 50 µM: read-out: pqsA @50 uM (%), compound at 50 uM
MvfR regulon [3] = assay: LC/MS quantification of HAQs and related molecules in bacterial culture supernatants; assay type: cell-based, P. aeruginosa; details: Pseudomonas aeruginosa
MvfR = biological target: T1, MvfR (Pseudomonas aeruginosa, UniProt Q9I4X0); assay: Surface plasmon resonance (SPR) binding to purified MvfR co-inducer binding domain; set-up: species or system P. aeruginosa
T1 construct: made in house
Procedure: Compounds identified to interfere with MvfR were confirmed for the direct physical interaction with this protein. Using SPR, the percentage of compound's binding to the purified MvfR protein was analyzed and used to determine the binding parameters (KD, kon and koff)—thus determining the kinetic of interaction with MvfR.
The recombinant MvfR co-inducer binding domain was purified using Ni-NTA chromatography, as previously reported (see e.g., Xiao et al, Microbiology, 2006, 152:1679-1686; Starkey et al, PLoS Pathog. 2014, 10:e1004321; and Kefala et al, Acta. Crystallogr. Sect. F. Struct. Biol. Cryst. Commun. 2012, 68:695-697). The purified protein was immobilized with the amine coupling method at a target level of 5000 RU on Chip. SPR was performed according to previously reported procedures (see e.g., Starkey et al, PLoS Pathog. 2014, 10:e1004321; Maura et al, ACS Chemical Biology, 2017, 12:1435-1443; and Kitao et al, MBIO, in press). […] Table 3 lists the steady-state KD data measured by SPR.

PA14 [4] = assay: Antibiotic tolerance/persister (AT/P) cell formation, meropenem, CFU plating; assay type: cell-based, P. aeruginosa; details: 50 μM compound
Procedure: Wild type (PA14) P. aeruginosa was grown in liquid culture with or without Compound 54 and treated with meropenem according to published procedures (see e.g., Starkey et al, PLoS Pathog. 2014, 10:e1004321). Data are expressed as fraction of original culture surviving antibiotic treatment.
(§1) AT/P efficacy of compounds using CFU plating was assessed by growning over-night, cultures diluted 1:100 in triplicate in fresh LB medium in the presence or absence of inhibitor, and re-grown to an OD600 of 2.0 while shaking under aeration at 37° C. Before the antibiotic treatment, aliquots were plated to obtain reference colony counts. […] At 24-h and 48-h time points, the number of surviving bacteria were assessed by plating. The survival fraction of AT/P cells was calculated by dividing the number of surviving bacteria by the number of live bacteria that were present before the antibiotic treatment (reference datum) and expressed as a mean (±SD) of at least three replicate experiments. Using the same CFU plating assay, the efficacy of all compounds identified will be tested against additional antibiotic classes: b-lactams (ceftazidime, cefepime and imipenem), quinolones (ciprofloxacin, moxifloxacin, and levofloxacin), and aminoglycosides (gentamicin and tobramycicn).

[5] = Pharmacokinetics in mouse plasma and lung after single subcutaneous injection; assay type: in vivo, mice; details: for stability in vivo (serum concentration): 10 mg/kg subcutaneous, over 24 h; for pharmacokinetics (in words): mouse, in vivo
Procedure: FIGS. 1F-1G show pharmacokinetics measured in mouse plasma (FIG. 1F) and lung (FIG. 1G) following a single subcutaneous injection of Compounds 53, 54, or 72 at 10 mg/kg.

[6] = test system: Caco2 intestinal epithelial cells; assay: Survival of Caco2 cells after compound exposure; assay type: cell-based; details: 25 μM, 3 hours exposure
PA14 [7] = assay: Mouse thigh infection model (PA14); assay type: in vivo, mice
Procedure: Mice were infected with 5×10^5 and 5×10^6 PA14 cells for the thigh and lung infection model respectively. FIGS. 5A-5C: Thigh model: treatment was initiated […] and repeated at 4, 8, 12 and 18 hours. FIG. 5A: monotherapy with Compound 72, 10 mg/kg (P<0.05 Mann Whitney test); FIG. 5B-5C. Combinatorial: Compound 72 (10 mg/kg) plus Ciprofloxacin 1 mg/kg (subtherapeutic dose) (FIG. 5B: P<0.05; Figure C: P>0.05; Mann Whitney test). CFUs were assessed 24 h post-infection in the thigh (FIG. 5A), liver (FIG. 5B) and spleen (FIG. 5C). Compound 72 was administered subcutaneously and ciprofloxacin intraperitoneally (IP). […] Mice were infected with 5×10^6 PA14 cells lung infection model. Compound 54 (10 mg/kg) plus ciprofloxacin 1 mg/kg treatment (subtherapeutic dose) was initiated at 2 h post-infection and repeated at 6, 12, and 18 h post-infection. CFUs were assessed 24 h post-infection in the lung. Compound 54 was administered subcutaneously and ciprofloxacin intraperitoneally (IP).
Thigh infection studies were performed using Compounds 54 and 72.

[8] = test system: Pseudomonas aeruginosa MDR clinical isolates; assay: Pyocyanin production in MDR clinical isolates; assay type: cell-based; details: 10 μM
Procedure: Percentage of pyocyanin production is presented in presence of 10 μM of D57 or D88 compounds. Tukey's multiple comparisons test p<0.0001.
Pyocyanin levels were determined by measuring OD520nm of chloroform-extracted cultures.

Solubility = assay type: physicochemical; details: initial solubility studies; listed as D88
From the text: FIGS. 6A-6E show pharmacological properties of a representative group of MvfR inhibitors.

[9] = test system: P. aeruginosa MDR clinical isolates; assay: AT/P cell formation in MDR clinical isolates; assay type: cell-based; details: 10 μM; MDR clinical isolates incl. mucoid strain from CF patients
Procedure: (§2) Statistical significance to the control was assessed using one-way ANOVA+Dunnett's post-test. P<0.001-0.005.
as §1

PA clinical isolate PA14 = assay: Biofilm formation (microtiter biofilm assay); assay type: cell-based, P. aeruginosa; details: 10 μM
Procedure: as §2
Inhibition of biofilm formation was assessed by quantifying initiation of biofilm formation via assessment of surface adhesion of PA using the microtiter biofilm assay as described in O'Toole, G A. J. Vis. Exp. 2011, Microtiter Dish Biofilm Formation Assay. Using single optimized agents, this assay allowed for various concentrations of each compound and several incubation times to be investigated in an HTS manner.

Acenitobacter baumanii = assay: Activity against other bacterial pathogens (preliminary); assay type: cell-based
[10] = test system: adhesive intestinal E. coli; assay: as above; assay type: cell-based
[11] = Steady State Binding Affinity KD (μM), SPR, steady state
[12] = Steady State Binding Affinity KD [M], SPR, steady state
[13] = mean KD value, SPR, mean over the compounds named

T1 sequence (Q9I4X0 91-332): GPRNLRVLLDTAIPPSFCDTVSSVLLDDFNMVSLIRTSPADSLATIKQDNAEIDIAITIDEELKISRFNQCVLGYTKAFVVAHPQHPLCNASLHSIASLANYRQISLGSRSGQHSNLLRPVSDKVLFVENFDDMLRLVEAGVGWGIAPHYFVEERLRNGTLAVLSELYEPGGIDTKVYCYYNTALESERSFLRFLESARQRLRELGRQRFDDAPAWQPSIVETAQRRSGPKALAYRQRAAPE

SMILES	IC50 (MvfR regulon [1])	activity at 50 µM (MvfR regulon [1])	IC50 (MvfR regulon [2])	activity at 10 µM (MvfR regulon [2])	activity at 50 µM (MvfR regulon [2])	Signal Intensity Rmax (MvfR; SPR)	Kd (MvfR; [11])	Kd (MvfR; [12])	Kd (MvfR; [13])	stability in vivo (serum concentration) [5]	pharmacokinetics (in words) [5]	toxicity to Caco2 (survival) [6]	activity at 1 µM (MvfR regulon [1])	activity at 10 µM (MvfR regulon [1])	other results
N#Cc1ccc(NC(=O)CC(=O)Nc2ccc(Cl)cc2)cc1 [Compound 53]	2.4 µM	6.23%	1.25 µM	1.55%	7.97%	26.52	0.244 µM	0.244 µM	~0.25 µM and 0.25 µM	stable in vivo	promising pharmacokinetics	not toxic			IC50 (MvfR regulon [3]; PA14, read-out: IC50 2-AA (μM)): 5.6 µM; IC50 (MvfR regulon [3]; PA14, read-out: IC50 DHQ (μM)): 9.1 µM; IC50 (MvfR regulon [3]; PA14, read-out: IC50 HHQ (μM)): 10.3 µM; IC50 (MvfR regulon [3]; PA14, read-out: IC50 PQS (μM)): 8.3 µM; activity at 50 µM (MvfR regulon [3]; read-out: 2-AA @50 uM): 5.87%; activity at 50 µM (MvfR regulon [3]; read-out: AA @50 uM): 739%; activity at 50 µM (MvfR regulon [3]; read-out: DHQ @50 uM): 10.3%; activity at 50 µM (MvfR regulon [3]; read-out: HHQ @50 uM (%)): 1.63%; activity at 50 µM (MvfR regulon [3]; read-out: HQNO @50 uM (%)): 13.9%; IC50 (MvfR regulon [3]; read-out: IC50 AA (increase; μM)): 14.5 µM; IC50 (MvfR regulon [3]; read-out: IC50 HQNO (μM)): 7.3 µM; activity at 50 µM (MvfR regulon [3]; read-out: PQS @50 uM (%)): 8.37%; binding to MvfR (in words) (MvfR; FIG. 1B): high affinity; binding intensity relative to parent Compound 1 (MvfR; SPR): 40 times; inhibition of persistence (PA14 [4]): inhibit persistence; stability in vivo (serum concentration) ([5]; listed as D41): highly stable in vivo
N#Cc1ccc(NC(=O)CC(=O)Nc2ccc(Oc3ccccc3)cc2)cc1 [Compound 72]	0.891 µM	6.06%	0.52 µM	1.08%	3.7%	34.24	1.09 µM	1.09 µM	0.25 µM	stable in vivo	promising pharmacokinetics	not toxic	14%	16.8%	half-life ([5]; mouse lung, 10 mg/kg SC, read-out: lung half-life (converted)): 1.19 h; Tlast ([5]; mouse plasma, 10 mg/kg SC): ~6 h; half-life ([5]; mouse plasma, 10 mg/kg SC, read-out: plasma half-life (converted)): 1.13 h; bacterial CFUs at the site of infection (PA14 [7]; 10 mg/kg SC, CFUs 24 h post-infection): decrease bacterial dissemination and titer at the infection site; also recorded: reduced bacterial CFUs; potentiation of ciprofloxacin in reducing PA cells dissemination in spleen and liver (PA14 [7]; 10 mg/kg compound SC plus ciprofloxacin 1 mg/kg IP): potentiated ciprofloxacin efficacy; activity on pyocyanin production in MDR clinical isolates ([8]; listed as D57): highly active; also recorded: confirmed
N#Cc1ccc(NC(=O)C(F)C(=O)Nc2ccc(Oc3ccccc3)cc2)cc1 (stereo not drawn) [Compound 103]	0.95 µM	5.58%		1.95%					0.25 µM				28.1%	4.4%	solubility (Solubility): 190 µg/mL (≈ 488 µM); activity on pyocyanin production in MDR clinical isolates ([8]; listed as D88): highly active; also recorded: confirmed; activity against antibiotic tolerant/persister cell formation [9]: highly active; activity against biofilm formation (PA clinical isolate PA14): highly active; potency against Acenitobacter baumanii (Acenitobacter baumanii): potent; potency against adhesive intestinal E. coli [10]: potent
